Entries after “also recorded” stand apart in the source; their conditions may differ.
Columns and labels:
[1] = target: Hb (Homo sapiens, UniProt P68871+P69905); details: cited from earlier work
[2] = target: T1, oxyHb (Homo sapiens, UniProt P68871+P69905); assay: Nitrosyl content of normoxic oxyHb after exposure to NO, photolysis-chemiluminescence; assay type: biochemical
T1 construct: purchased Apex Bioscience (Research Triangle Park, N.C.)
Description: Nitroso/nitrosyl derivatives of Hb were measured using a photolysis-chemiluminescence technique [6-fold excess HgCl2 over protein was added to displace S-nitrosothiol (SNO) (Stamler, J. S., et al., Science, 276:2034-2037, 1997)]. Samples were kept on ice for a period of 5 minutes to 2 hours before analyses. MetHb was monitored by UV-visible spectroscopy as the difference absorption above the linear baseline (600-700 nm), and EPR (below).
(A) Nitrosyl content of oxyHb (10 mM phosphate 100 μM DTPA, pH 7.4) after exposure to 1.2 μM NO, as measured by photolysis-chemiluminescence (Stamler, J. S., et al., Science, 276:2034-2037, 1997). Nitrosyl yield increases as a function of Hb concentration (P<0.05). Solid symbols, absolute yield of NO bound to Hb (FeNO plus SNO); open symbols, percentage of NO added. Data shown are the average of 7 to 19 experiments±SE. (B) Standard difference spectra of metHb (solid line), deoxyHb (dotted line), and iron nitrosylHb (dashed line) vs. oxyHb. (C) Difference spectra generated from the exposure of NO to normoxic (≈99% oxygen saturation) Hb. NO was added (in 10 aliquots totaling 2.2 μM) to 33 μM Hb in 100 mM phosphate (solid line) or 10 mM phosphate (dotted line) or 10 mM phosphate plus 0.05% borate (dashed line). […] Specifically, spectra in C were fitted, by a least-squares process, to either the simple competition model or the cooperativity model without a mass balance constraint. Cooperativity is present if add increases above that reported in the literature, as a function of oxygen tension.
(A) SOD increases the yield of NO bound to Hb. The experiments in FIG. 3A were repeated in the absence (solid line; 1.2 μM NO) or presence (dashed line; 1.5 μM NO) of 1, 190 units/ml of SOD, which enhances the yield of nitrosyl species to approximately 100% of the NO added. Similar nitrosyl yields were obtained by using stroma-free Hb (25 μM), which is enriched in endogenous SOD (open circle). Data shown are the average of five to nine experiments±SE. (B) EPR spectrum of a DNIC formed by exposure of oxyHb (≈99% sat; 3.93 mM) to NO (36 μM). (C)S-nitrosoHb and iron nitrosylHb formed by exposure of oxyHb (=99% sat., 48 μM) to NO (1.2 μM). SNO (hatched bar) and FeNO (solid bar) were measured by photolysis-chemiluminescence (Stamler, J. S., et al., Science, 276:2034-2037, 1997). Data shown are the average of 12 experiments±SE. (D) Measurement of intraerythrocytic S-nitrosoHb and iron nitrosylHb formed by exposure of oxygenated RBCs (mean [Hb], 25 μM) to 0.3 μM NO. Isolation of Hb and measurements were as previously described (Stamler, J. S., et al., Science, 276:2034-2037, 1997). Data are the mean of 12 experiments±SE.

[3] = test system: RBC membrane thiols; assay: Alkylation of IOV proteins with 14C-iodoacetamide; assay type: biochemical; details: DIDS-modified vs unmodified IOVs
Text: FIG. 8G is a fluorographic image of proteins on an SDS-polyacrylamide gel following electrophoresis. […] The position of AE1 on the gel, determined by Western blotting, is indicated. (n=3-8 for A-F).
Thus, inhibition of transnitrosylation by DIDS supports the conclusion that AE1 is the principal acceptor of NO groups transferred from SNO-Hb to the RBC membrane.

[4] = test system: IOVs; assay: Binding of SNO-Hb to IOVs from native or DIDS-treated RBCs; details: 10 mM MOPS, pH 7, 21% O2
Description: Immunoprecipitation was carried out by incubation of TX-100 or NP-40 extracts with antibodies followed by protein G-Sepharose. We employed two monoclonal anti-AE1 antibodies (Sigma, clone BIII-136, and kindly provided by M. Telen) that recognized epitopes in the cytoplasmic domain and that produced indistinguishable results. Immune complexes were eluted with 10 mM glycine at pH 3.0, and eluates were adjusted immediately to pH 7.4 followed by photolysis/chemiluminescence. Efficiency of immunoprecipitation was confirmed by Western blotting. Binding of SNO-Hb to IOVs was assessed in 10 mM MOPS buffer, pH 7, at room temperature and 21% O2. Incubation was for 15 mins before IOVs were solubilized in 1% TX-100, and heme content was assessed spectrophotometrically. When employed, RBCs were treated for 60 mins with DIDS (0.1 mM; calculated 10-fold molar excess over AE1), then washed thoroughly to remove unreacted DIDS. RBCs were then exposed to NO (as above) or used to prepare DIDS-modified IOVs (as above).

Row | SNO-Hb binding to IOVs from native vs DIDS-treated RBCs [4] | SMILES | rate constant of NO-mediated oxidation of oxyHb to metHb [1] [M⁻¹ s⁻¹] | rate constant of binding of NO to unoccupied hemes in Hb [1] [M⁻¹ s⁻¹] | nitrosyl yield ([2]; 1.2 μM NO added to 48 μM oxyHb) | share of nitrosyl yield that is SNO ([2]; 1.2 μM NO added to 48 μM oxyHb) | nitrosyl yield relative to the [Hb] ([2]; 1.2 μM NO, ≈99% O2 saturation, 10 mM phosphate) [%] | maximum yield of nitrosyl species ([2]; 1.2 μM NO, ≈99% O2 saturation, 10 mM phosphate, increasing [Hb]) | nitrosyl yields under normoxic conditions ([2]; heme vacancies only ≈1%) | direct modification of sulfhydryls [3]
1 |  | [N]=O [NO, nitric oxide] | 3.7e+07 | 2.6e+07 | approximately 500 nM | ≈ 80% | 3 to 0.6 | approximately 50 % of NO added | ≤ 6 % of Hb | 
2 | equal affinity | O=S(=O)(O)c1cc(N=C=S)ccc1C=Cc1ccc(N=C=S)cc1S(=O)(=O)O [DIDS, 4,4′-diisothiocyanatostilbene-2,2′-disulfonic acid] |  |  |  |  |  |  |  | did not modify sulfhydryls directly; also recorded: does not directly reduce reactivity

Source: patent US20090232909A1, “Method for determining physiological effects of hemoglobin” (priority 1999, published 2009)
